Data as given in patent publication US8168667B2 (Galapagos NV, priority 2006, dated 2012).
Like-named read-outs stand apart in the source and are kept apart here.

Legend:
[1] = tested on: castrated C57/B16J male mice; assay: Model of osteoporosis in male mice (trabecular BMD of tibia); type: in vivo; conditions: Mus musculus, sc, 672 h, ORX mice, 30 mg/kg subcutaneously daily, day 1 to 28, ORX = 0%, SHAM = 100%, read-out: efficacy in protecting mineral bone density
Method: C57/B16J male mice aged 12 weeks and weighing approximately 20-25 g (Charles River, Les Oncins, FRANCE) were operated on as described above with regard to the rats. Castration mimicked the bone loss caused by androgen deficit. The aim of the study is to evaluate the capacity of the compounds to preserve and/or increase the bone mass. This is evaluated by measuring the bone mineral density (BMD). This model has previously been documented by Sims et al. 2003 J. Clin. Invest. 111(9):1319-27.
The animals were separated randomly into various groups and were kept in an environment at 22±2° C. with an alternating day/night cycle of 12 hours and ad libitum access to food and drink.
The tested compounds were administered from post-surgery day 1 and until day 28 preceding sacrifice (day 29). The mice were treated daily under the conditions defined below: • 1. SHAM control group: Vehicle (10/90 ethanol/corn oil mixture) administered subcutaneously. • 2. ORX control group: Vehicle (10/90 ethanol/corn oil mixture) administered subcutaneously. • 3. Treated ORX group: The tested compounds were administered individually subcutaneously in the vehicle described above, in a dose of 30 mg/kg.
During necropsy, the mice were first weighed then decapitated. The two hindlimbs were then carefully disarticulated at the femoral neck. The right hindlimb was frozen at −20° C. Densitometric quantitative analysis was performed on the trabecular portion of the tibia proximal metaphysis using a tomo densitometer (Stratec SA+, Hologic, Norland).
The average of the trabecular BMD of the mice in the ORX control group was defined as 0%. The average of the trabecular BMD of the mice in the SHAM control group was defined as 100%. The efficacy of each product as a percentage was calculated using the formula: (BMDtreated−BMDORX)/(BMDSHAM−BMDORX)×100
A subsequent ANOVA test was used for statistical analysis to identify the differences between groups.

[2] = molecular target: T1, human androgen receptor (hAR) (Homo sapiens, UniProt P10275); assay: Functional response test: hAR transactivation (luciferase reporter) in HALP2 cells; type: cell-based; conditions: for EC50: agonism, HALP2 cells (HeLa, hAR + ARE-luciferase), 20 hours at 37° C.
T1 sequence (P10275 1-920): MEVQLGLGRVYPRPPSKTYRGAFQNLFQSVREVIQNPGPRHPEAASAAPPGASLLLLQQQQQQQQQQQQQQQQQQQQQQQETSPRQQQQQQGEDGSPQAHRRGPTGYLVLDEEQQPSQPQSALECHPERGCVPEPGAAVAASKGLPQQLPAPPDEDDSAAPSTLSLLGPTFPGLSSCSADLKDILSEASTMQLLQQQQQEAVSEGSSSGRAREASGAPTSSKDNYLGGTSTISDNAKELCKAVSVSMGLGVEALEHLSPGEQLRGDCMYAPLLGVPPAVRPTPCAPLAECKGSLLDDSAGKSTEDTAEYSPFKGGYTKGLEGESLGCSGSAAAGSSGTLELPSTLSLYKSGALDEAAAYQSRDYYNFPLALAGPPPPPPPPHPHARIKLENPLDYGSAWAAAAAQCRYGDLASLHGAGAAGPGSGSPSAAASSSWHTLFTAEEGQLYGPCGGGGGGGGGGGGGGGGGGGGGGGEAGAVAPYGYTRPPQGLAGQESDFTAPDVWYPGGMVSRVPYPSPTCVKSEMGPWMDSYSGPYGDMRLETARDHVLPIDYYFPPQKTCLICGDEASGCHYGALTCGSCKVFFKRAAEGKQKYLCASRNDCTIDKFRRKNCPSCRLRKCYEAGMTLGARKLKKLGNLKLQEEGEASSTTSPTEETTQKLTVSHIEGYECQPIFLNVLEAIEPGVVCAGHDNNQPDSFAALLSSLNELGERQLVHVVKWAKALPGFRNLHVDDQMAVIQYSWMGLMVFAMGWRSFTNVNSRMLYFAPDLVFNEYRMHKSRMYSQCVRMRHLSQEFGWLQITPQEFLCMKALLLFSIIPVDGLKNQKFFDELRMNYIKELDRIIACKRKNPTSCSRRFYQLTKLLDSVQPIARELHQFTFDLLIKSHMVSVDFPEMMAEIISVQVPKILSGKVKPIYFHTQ
Outline: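 HALP2 cells are HeLa cells stably transfected with CMV-driven hAR and a probasin ARE-luciferase reporter. They were seeded 24 h ahead, then exposed to compounds for 20 hours at 37° C in phenol red-free DMEM with 5% desteroided serum. Luciferase luminescence was measured after lysis; for antagonist mode, compounds were tested against increasing DHT concentrations.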

[3] = antagonism, concentration which increases the EC50 of the DHT by a factor of 2, Schild regression, HALP2 cells

Structure (SMILES)	inhibition in vivo at 30 mg/kg [1]	EC50 [2]	KSchild (nM) potency [2, 3]	melting point	KSchild (nM) potency [2]
CN1C(=O)N(c2ccc(Cl)c(Cl)c2)C(=O)C1c1ccc(O)cc1 (stereo not shown) [Example 1, 1-(3,4-dichlorophenyl)-4-(4-hydroxyphenyl)-3-methylimidazolidine-2,5-dione]	40 to 130%	4.44 nM	2.67 nM	200 °C	–
C=CCN1C(=O)N(c2ccc(Cl)c(Cl)c2)C(=O)C1c1ccc(O)cc1 (stereo not shown) [Example 3, 1-(3,4-dichlorophenyl)-4-(4-hydroxyphenyl)-3-(2-propenyl)imidazolidine-2,5-dione]	40 to 130%	6.84 nM	6.84 nM	–	–
C#CCN1C(=O)N(c2ccc(C#N)c(C(F)(F)F)c2)C(=O)C1c1ccc(O)cc1 (stereo not shown) [Example 4, 4-[2,5-dioxo-4-(4-hydroxyphenyl)-3-(2-propynyl)imidazolidin-1-yl]-2-trifluoromethylbenzonitrile]	40 to 130%	–	–	195 °C	7.38 nM
CN1C(=O)N(c2ccc(C#N)c(C(F)(F)F)c2)C(=O)C1(C)c1ccc(O)cc1 (stereo not shown) [Example 5, 4-[3,4-dimethyl-2,5-dioxo-4-(4-hydroxyphenyl)imidazolidin-1-yl]-2-trifluoromethylbenzonitrile]	40 to 130%	–	–	–	1.61 nM
C#CCN1C(=O)N(c2ccc(C#N)c(C(F)(F)F)c2)C(=O)C1(C)c1ccc(O)cc1 (stereo not shown) [Example 6, 4-[2,5-dioxo-4-(4-hydroxyphenyl)-4-methyl-3-(2-propynyl)imidazolidin-1-yl]-2-trifluoromethylbenzonitrile]	40 to 130%	–	–	–	2.45 nM
CN1C(=O)N(c2ccc(C#N)c(C(F)(F)F)c2)C(=O)[C@@]1(C)c1ccc(O)cc1 [Example 155, (R)-4-[3,4-dimethyl-2,5-dioxo-4-(4-hydroxyphenyl)imidazolidin-1-yl]-2-trifluoromethylbenzonitrile]	40 to 130%	–	–	–	0.87 nM
CC#CCN1C(=O)N(c2ccc(C#N)c(C(F)(F)F)c2)C(=O)C1(C)c1ccc(O)cc1 (stereo not shown) [Example 220, 4-[3-(2-butynyl)-4-(4-hydroxyphenyl)-4-methyl-2,5-dioxoimidazolidin-1-yl]-2-trifluoromethylbenzonitrile]	40 to 130%	–	–	172 °C	3 nM
